Laboratory results reported in US6086915A, “Compositions and methods of adjusting steroid hormone metabolism through phytochemicals” (priority 1998, dated 2000).
Converted amounts (≈) assume the structure as drawn. “Also recorded” adds a separate entry of the source. Like-named read-outs stand apart in the source and are kept apart here. Values belong to the compound of their own block, whether it stands above or below them.

Legend:
[1] = an hour after oral dose of I3C; cited from earlier work
[2] = test system: hepatic microsomal metabolism of estrogen; conditions: cited from earlier work
hepatic enzyme = conditions: one mg/kg of DIM in corn oil, fed; cited from earlier work
[3] = solubility in water and in oil; format: physicochemical
Human Cancer Cells = conditions: cell culture; cited from earlier work
[4] = test system: total cytochrome (CYP) enzymes; test: Example 9: total CYP in liver microsomes of rats fed crystalline or processed DIM (Western Blots); format: in vivo, Sprague Dawley rats; conditions: males; 100 mg per kg gavage, 3 consecutive days
cultured liver cells = conditions: added directly to cultured liver cells; cited from earlier work
p-glycoprotein = conditions: cited from earlier work
[5] = test system: CYP enzymes in colonic epithelium; conditions: in diet, mixed with feed; cited from earlier work
[6] = DIM stability in simulated gastric environment and shelf-life conditions; format: physicochemical
Source text: Therefore the need exists for a bioavailable formulation of DIM as well as related dimers and trimers, since hydrophobic substances like DIM are poorly absorbed.

CYP 1A1/1A2 and 1B1 = test: Example 10: immunoblot of CYP enzyme induction in uterine and hepatic microsomes after feeding; format: in vivo, Sprague-Dawley female rats
Procedure: CYP enzyme induction was again used as a bio-marker of bioavailability.
The study compared the enzyme induction resulting from exposure of female rats to crystalline DIM, I3C and processed DIM at relevant doses in the feed. Levels of CYP 1A1/1A2 and 1B1 were measured in uterine and hepatic microsomes as a surrogate end point of uptake and bioavailability.
A total of 30 Sprague-Dawley female rats weighing approximately 200 gms were treated as follows:
1. 5-7 day acclimatization in group cages, feeding on AIN76A minimally inducing diet.
2. 3 days feeding on same feed mixed with 7 different combinations of dietary indoles.
3. Sacrifice of animals on about day 10. Harvesting of livers and uteri following perfusion of abdominal organs to remove blood.
4. Processing of organs to obtain CYP enzyme rich microsomal fraction.
5. Immunoblot determination of levels of specific CYP enzymes by standard means using existing CYP antibodies.
Microsomes from the following groups were assayed:
Organ weight was obtained at necropsy. Specific CYP enzyme levels were compared based on standardized densitometry units. […] Results expressed as densitometry units indicating uptake of indole and degree of enzyme induction are listed according to the above groups: […]

[7] = test system: 2-hydroxylation of estradiol; conditions: cited from earlier work; for shift of estrogen metabolism: I3C, oral
CYP 1A1/1A2 [8] = conditions: rats fed I3C; cited from earlier work
[9] = cited from earlier work
CYP 1A1/1A2 [10] = conditions: mice fed I3C; cited from earlier work
[11] = test system: 2-hydroxylation of estradiol; conditions: animals; cited from earlier work
CYP = conditions: cited from earlier work
[12] = oil, organic solvent or mixture, read-out: solubility in oil
[13] = water, read-out: solubility in water

SMILES: c1ccc2c(Cc3[nH]c4ccccc4c3Cc3c[nH]c4ccccc34)c[nH]c2c1 [2,3-bis[3-indolylmethyl]indole]
detection in gastric contents and stomach tissue [1]: detected in gastric contents and stomach tissue

solubility [3, 12]: 100 µg/mL (≈ 406 µM)
solubility [3, 13]: 2.5 µg/mL (≈ 10.1 µM)
Total CYP (nmol/mg protein), Percent of Control [4]: 140%
shelf stability ([6]; accelerated shelf-life conditions): shelf stable
indolocarbazole generation ([6]; digestion, gastric acid, or accelerated shelf-life conditions): No indolocarbazole is generated
stability during passage through a simulated gastric environment ([6]; simulated gastric environment): entirely stable
CYP enzyme induction, Densitometry Units (CYP 1A1/1A2 and 1B1; DIM high 10 mg/kg/day, crystalline, in feed 3 days): 0 Densitometry Units
CYP enzyme induction, Densitometry Units (CYP 1A1/1A2 and 1B1; DIM low 2 mg/kg/day, crystalline, in feed 3 days): 0 Densitometry Units
SMILES: c1ccc2c(Cc3c[nH]c4ccccc34)c[nH]c2c1 [DIM, 3,3'-diindolylmethane]
dose below which activity is lost ([2]; DIM in the diet / in sesame oil): below 5 mg per kg
potency in influencing estrogen metabolism, DIM over I3C ([2]; fed to rats): increased potency of DIM over I3C
lowest dose with enzyme inductive effects ([2]; injected intraperitoneally): 0.3 mg per kg
hepatic enzyme induction (hepatic enzyme): no hepatic enzyme induction
apoptosis (Human Cancer Cells): able to support the cancer preventive behavior of apoptosis
CYP enzyme induction (cultured liver cells): powerful CYP enzyme-inducer
p-glycoprotein function (p-glycoprotein; cell culture and in vivo): Inhibition of the function of the p-glycoprotein
effectiveness of chemotherapy drugs in multiply resistant cancer cells (p-glycoprotein): increase the effectiveness of chemotherapy drugs in multiply resistant cancer cells; also recorded: increased effectiveness of chemotherapeutic compounds in multiply resistant cancer cells
interaction with p-glycoprotein membrane structure (p-glycoprotein; molecular probe): direct interaction of DIM with the p-glycoprotein membrane structure
detection in gastric contents and stomach tissue [1]: detected in gastric contents and stomach tissue
CYP enzyme induction in colonic epithelium [5]: failed to induce CYP enzymes in colonic epithelium

CYP enzyme induction, Densitometry Units (CYP 1A1/1A2 and 1B1; I3C high 25 mg/kg/day, in feed 3 days): 5.1 Densitometry Units
CYP enzyme induction, Densitometry Units (CYP 1A1/1A2 and 1B1; I3C low 5 mg/kg/day, in feed 3 days): 0 Densitometry Units
SMILES: OCc1c[nH]c2ccccc12 [I3C, indole-3-carbinol]
minimum dose ([7]; I3C dietary supplement): 300 mg per person per day
shift of estrogen metabolism [7]: beneficially shift estrogen metabolism to favor 20 H estrone
shift of estrogen metabolism ([7]; listed as indole-3-carbinol): successful in shifting estrogen metabolism to favor 20 H estrone
2-hydroxylation of estradiol ([7]; humans): increase the 2-hydroxylation of estradiol
hepatic and intestinal levels of CYP 1A1/1A2 enzyme (CYP 1A1/1A2 [8]): increased
CYP enzyme induction in colonic epithelium [5]: powerful inductive activity
loss of the original I3C ([9]; aging conditions simulating a one month period, 43800 min): approximately 50%
stability ([9]; heat, light, moisture, or acidic environments): unstable and subject to spontaneous breakdown
hepatic and intestinal levels of CYP 1A1/1A2 enzyme (CYP 1A1/1A2 [10]): increased
2-hydroxylation of estradiol [11]: increase the 2-hydroxylation of estradiol

SMILES: Clc1cc2c(cc1Cl)Oc1cc(Cl)c(Cl)cc1O2 [TCDD, 2,3,7,8-Tetrachlorodibenzo-P-Dioxin]
CYP enzyme induction, Densitometry Units (CYP 1A1/1A2 and 1B1; positive control, by gavage): 251.7 Densitometry Units

SMILES: COc1ccc(-c2cc(=O)c3c(OC)c(OC)c(OC)c(OC)c3o2)cc1 [Tangeretin, 5,6,7,8,4'-pentamethoxyflavone]
CYP induction (CYP; dietary intake): associated with CYP induction

SMILES: O=c1cc(-c2ccccc2)oc2cc(O)cc(O)c12 [chrysin, 5,7-Dihydroxyflavone, reference compound]
solubility [3, 12]: 50 µg/mL (≈ 197 µM)
solubility [3, 13]: 0.7 µg/mL (≈ 2.75 µM)
CYP-related effects in rat livers (CYP; two weeks oral intake at 300 mg/kg of body weight): no CYP-related effects were noted in rat livers
